According to article PMC3938723, “Learning from Host-Defense Peptides: Cationic, Amphipathic Peptoids with Potent Anticancer Activity” (PLoS ONE, 2014):
Non-standard residues stand in square brackets, D forms with d. Residues, ends and D or L forms follow the SMILES beside them. Nspe = C[C@H](NCC(=O)O)c1ccccc1; Nlys = NCCCCNCC(=O)O

Legend:
[1] = test system: human red blood cells; settings: concentration causing 10% hemolysis of human red blood cells; cited from earlier work
Description: Table 2 Peptoid Cytotoxicity in cancer cell lines and control cells. | column: HC10 (µM) ** || The chain length is believed to influence not only the activity but also modes of action of cationic, amphipathic peptides, [34]. […] Thus we limited the chain length of peptoids to 13 residues at most, and studied 1 9mer which has the same charge-to-length ratio (CTLR) as peptoid ...

[2] = test system: human breast cancer xenograft; experiment: Human breast cancer orthotopic xenograft mouse model, tumor growth; type: in vivo; settings: ~1 mg/kg (100 µl of 110 µM in PBS) injected into mammary fat pad three times a week, NSG mice, versus control peptoid 1 11mer-NLeu; caliper; P = 0.0014, t test
Procedure: 80,000 cells from a dissociated second generation metastatic breast cancer tumor were suspended in Medium 199 containing 25% Matrix Matrigel (Becton Dickinson 354248) and injected into the mammary fat pad of 4–8 week old NOD.Cg-Prkdc^scid Il2rg^tm1Wjl/SzJ (NSG) mice. After two weeks, 100 µl PBS containing 110 µM peptoid 1 or control peptide was injected into the mammary fat pad three times a week, roughly at a dose of 1 mg/kg. Tumor volumes were determined using direct caliper measurements following […] of treatment.
Human breast cancer cells were implanted in the mammary fat pad of immunocompromised mice.
Figure 5 Reduction of tumor volumes in a human breast cancer xenograft mouse model treated with peptoid 1. Cancer cells (8×10^4 cells) isolated from the second generation xenografts of human breast cancer tissues were implanted s.c. into the lower left mammary fat pads of 5–6-week-old immunocompromised NSG (NOD.Cg-Prkdc^scid Il2rg^tm1Wjl/SzJ) female mice. Two weeks after cell implantation, 100 µl of peptoid 1 and control peptoids were injected into xenografts at 110 µM in PBS (∼1 mg/kg) three times a week, up to 8 weeks. Tumor sizes were measured by a caliper. P = 0.0014, t test.

[3] = test system: MCF-7 cells; experiment: LDH leakage assay (plasma membrane integrity); type: cell-based, human; settings: 50 µM, LDH leakage caused by cell lysis solution as the 100% control, measured immediately after treatment
Procedure: This assay is used to measure the membrane integrity as a function of the amount of cytoplasmic LDH (lactic dehydrogenase) released into the medium. Experiments were carried out according to the protocol of the In Vitro Toxicology Assay Kit, Lactic Dehydrogenase (LDH) based (Sigma-Aldrich). Briefly, cells were plated as described before, and peptoids were diluted similarly but in culturing media without phenol red to reduce background signal. After peptoid treatments, media supernatant were collected and centrifuged to remove any cell debris, and analyzed for LDH activity in a 96-well plate using the kit, absorbance at 490 nm and 690 nm measured using a microplate reader. All the following absorbance difference = A 490nm –A 690nm. Percentage of LDH leakage = (A -A testblank)/(A lysis -A blank)×100, where A is the average absorbance difference of the test wells and A lysis the average absorbance difference of wells with cells treated with cell lysis solution provided by the kit for 45 min. A testblank (media, diluted peptoids and LDH measuring reagents) and A blank (media and LDH measuring reagents) were background absorbance differences measured in the absence of cells.
These anticancer peptoids exert fast killing in cancer cells and are not affected by the multidrug resistance. […] The LDH assay measures membrane damage by quantifying the leakage of the cytoplasmic enzyme LDH. […]

Q: Which HC10 [1] does the source give for C[C@@H](c1ccccc1)N(CC(N)=O)C(=O)CN(C(=O)CN(CCCCN)C(=O)CN(C(=O)CN(C(=O)CN(CCCCN)C(=O)CN(C(=O)CN(C(=O)CN(CCCCN)C(=O)CN(C(=O)CN(C(=O)CNCCCCN)[C@@H](C)c1ccccc1)[C@@H](C)c1ccccc1)[C@@H](C)c1ccccc1)[C@@H](C)c1ccccc1)[C@@H](C)c1ccccc1)[C@@H](C)c1ccccc1)[C@@H](C)c1ccccc1 [Peptoid 1, H-(NLys-Nspe-Nspe)4-NH2] (H-[Nlys][Nspe][Nspe][Nlys][Nspe][Nspe][Nlys][Nspe][Nspe][Nlys][Nspe][Nspe]-NH2) here?
A: Its HC10 is 21 µM.

Q: What about the tumor growth [2] of the same molecule?
A: Its tumor growth is “significantly inhibited the tumor growth”.

Q: And the “LDH (enzyme) leakage” value [3]?
A: The value was roughly 50%.
